A short description of the data set: Oral bioavailability in rats compared with conventional formulations. It is filed as in vivo. As for the experimental part: Glyceryl tricaprylate and tricaprate mixture solutions containing these drugs are admixed in complex slurry according to Example 1 and recovered as free-flowing powders as in Example 2. […] Oral bioavailability is tested in rats and compared with those from other conventional formulations.
A soy oil solution containing 100 parts per million of triclosan is admixed in a complex slurry containing 100 parts per million of chlorhexidine according to Example 1. Microbeads are then produced and recovered as free-flowing powders as in Example 2. […] Oral bioavailability is tested in rats and compared with those from other conventional formulations.

Two compounds from US20190328670A1, “Microparticles for Oral Delivery” (Intervet Inc., priority 2004, published 2019) can be followed below.

Structures are written as SMILES.

In the case of `Oc1cc(Cl)ccc1Oc1ccc(Cl)cc1Cl` [triclosan], the Gastrointestinal absorption entry (rats, oral, from the microbeads/microcapsules versus powders, granules, or oil solution) was “more efficient”.

For the compound `[H]/N=C(\N/C(=N/[H])NCCCCCCNC(=N)NC(=N)Nc1ccc(Cl)cc1)Nc1ccc(Cl)cc1` [chlorhexidine], the Gastrointestinal absorption result (rat, in vivo, po) is on record as “more efficient”.
